The test addresses WaaG (α-1,3-glucosyltransferase I) (Escherichia coli, UniProt P25740). Nature of the test: […]-glucose transfer from UDP-Glc to truncated LPS, SDS-PAGE autoradiography, dose-response. Format: biochemical.

Results on one compound are retold here after article PMC4810412, “Identification of a Fragment-Based Scaffold that Inhibits the Glycosyltransferase WaaG from Escherichia coli” (Antibiotics, 2016).

Broadly, the IC50 is the concentration at which inhibition is half-maximal.

Sequence of WaaG (α-1,3-glucosyltransferase I) (P25740 whole entry, the tested form may be a part): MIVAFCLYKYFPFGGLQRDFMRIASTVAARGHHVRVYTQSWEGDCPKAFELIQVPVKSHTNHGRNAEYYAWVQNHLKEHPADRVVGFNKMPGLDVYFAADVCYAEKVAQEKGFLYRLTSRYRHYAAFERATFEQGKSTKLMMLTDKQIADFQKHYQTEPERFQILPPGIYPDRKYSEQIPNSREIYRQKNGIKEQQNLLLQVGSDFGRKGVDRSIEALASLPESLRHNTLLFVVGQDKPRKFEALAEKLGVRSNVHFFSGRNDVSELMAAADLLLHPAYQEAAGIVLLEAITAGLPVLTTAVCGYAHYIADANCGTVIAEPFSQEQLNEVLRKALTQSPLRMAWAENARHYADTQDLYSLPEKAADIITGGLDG

`Nc1nc(-c2ccc(O)cc2)cs1` [L1, 4-(2-amino-1,3-thiazol-4-yl)phenol] came in with a half-inhibitory concentration (IC50) of 1000 µM.
